Source: PubChem BioAssay (NCI)
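Cells were grown in 96-well plates and exposed to each compound for 48 hours at five concentrations; endpoints were interpolated linearly between bracketing concentrations, or set to the highest concentration if not reached. GI50 = concentration required for 50% inhibition of growth. TGI: concentration producing complete growth inhibition.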

What was measured:
Experiment in all cases: NCI tumour cell line growth inhibition, 48 h
NCI/ADR-RES ovarian = system: NCI/ADR-RES ovarian
HS 578T breast = system: HS 578T breast
RXF 393 renal = system: RXF 393 renal
LOX IMVI melanoma = system: LOX IMVI melanoma
HOP-62 NSCLC = system: HOP-62 NSCLC
MALME-3M melanoma = system: MALME-3M melanoma
BT-549 breast = system: BT-549 breast
PC-3 prostate = system: PC-3 prostate
SW-620 colon = system: SW-620 colon
SN12C renal = system: SN12C renal
SF-268 CNS = system: SF-268 CNS
DU-145 prostate = system: DU-145 prostate
KM12 colon = system: KM12 colon
OVCAR-5 ovarian = system: OVCAR-5 ovarian
SR leukemia = system: SR leukemia
IGROV1 ovarian = system: IGROV1 ovarian
SK-MEL-5 melanoma = system: SK-MEL-5 melanoma
MDA-MB-435 = system: MDA-MB-435
MOLT-4 leukemia = system: MOLT-4 leukemia
COLO 205 colon = system: COLO 205 colon
HCT-15 colon = system: HCT-15 colon
NCI-H460 lung = system: NCI-H460 lung
SK-MEL-28 melanoma = system: SK-MEL-28 melanoma
EKVX NSCLC = system: EKVX NSCLC
SK-MEL-2 melanoma = system: SK-MEL-2 melanoma
ACHN renal = system: ACHN renal
HL-60(TB) leukemia = system: HL-60(TB) leukemia
MDA-MB-231 breast = system: MDA-MB-231 breast
OVCAR-4 ovarian = system: OVCAR-4 ovarian
TK-10 renal = system: TK-10 renal
T-47D breast = system: T-47D breast
UO-31 renal = system: UO-31 renal
SNB-19 CNS = system: SNB-19 CNS
A498 renal = system: A498 renal
SF-539 CNS = system: SF-539 CNS
M14 melanoma = system: M14 melanoma
HCC-2998 colon = system: HCC-2998 colon
UACC-257 melanoma = system: UACC-257 melanoma
SK-OV-3 ovarian = system: SK-OV-3 ovarian
OVCAR-3 ovarian = system: OVCAR-3 ovarian
HCT-116 colon = system: HCT-116 colon
UACC-62 melanoma = system: UACC-62 melanoma
786-0 renal = system: 786-0 renal
NCI-H226 lung = system: NCI-H226 lung
SNB-75 CNS = system: SNB-75 CNS
CCRF-CEM leukemia = system: CCRF-CEM leukemia
HT29 colon = system: HT29 colon
U251 CNS = system: U251 CNS
SF-295 CNS = system: SF-295 CNS
NCI-H522 lung = system: NCI-H522 lung
CAKI-1 renal = system: CAKI-1 renal
OVCAR-8 ovarian = system: OVCAR-8 ovarian
MCF7 breast = system: MCF7 breast
A549 NSCLC = system: A549 NSCLC
RPMI-8226 leukemia = system: RPMI-8226 leukemia
NCI-H23 lung = system: NCI-H23 lung
K-562 leukemia = system: K-562 leukemia

For CCC(CC)COC(=O)[C@H](C)N[P@](=O)(OC[C@H]1O[C@@](C#N)(c2ccc3c(N)ncnn23)[C@H](O)[C@@H]1O)Oc1ccccc1, the GI50 (NCI/ADR-RES ovarian) was greater than 100 µM, the TGI (NCI/ADR-RES ovarian) was greater than 100 µM and the GI50 (HS 578T breast) was 13.2 µM. For the same compound, the TGI (HS 578T breast) was greater than 100 µM, the GI50 (RXF 393 renal) was 2800 nM and the TGI (RXF 393 renal) was 23.3 µM. For the same compound, the GI50 (LOX IMVI melanoma) was 3.58 µM, the TGI (LOX IMVI melanoma) was 22.1 µM and the GI50 (HOP-62 NSCLC) was 6.34 µM. For the same compound, the TGI (HOP-62 NSCLC) was greater than 100 µM, the GI50 (MALME-3M melanoma) was 2080 nM and the TGI (MALME-3M melanoma) was 6.91 µM. For the same compound, the GI50 (BT-549 breast) was 9.62 µM, the TGI (BT-549 breast) was 50.7 µM and the GI50 (PC-3 prostate) was 3.58 µM. For the same compound, the TGI (PC-3 prostate) was 14.2 µM, the GI50 (SW-620 colon) was 1920 nM and the TGI (SW-620 colon) was greater than 100 µM. The GI50 (SN12C renal) was 7.73 µM, the TGI (SN12C renal) was greater than 100 µM and the GI50 (SF-268 CNS) was 4.29 µM. It also gave a TGI (SF-268 CNS) greater than 100 µM, a GI50 (DU-145 prostate) of 8.44 µM and a TGI (DU-145 prostate) greater than 100 µM. The GI50 (KM12 colon) was 15.3 µM, the TGI (KM12 colon) was greater than 100 µM and the GI50 (OVCAR-5 ovarian) was 40.2 µM. For the same compound, the TGI (OVCAR-5 ovarian) was greater than 100 µM, the GI50 (SR leukemia) was 1000 nM and the TGI (SR leukemia) was 32.4 µM. The GI50 (IGROV1 ovarian) was 2720 nM, the TGI (IGROV1 ovarian) was 95.2 µM and the GI50 (SK-MEL-5 melanoma) was 5.24 µM. It also gave a TGI (SK-MEL-5 melanoma) of 17.5 µM, a GI50 (MDA-MB-435) of 4.53 µM and a TGI (MDA-MB-435) of 25.1 µM. For the same compound, the GI50 (MOLT-4 leukemia) was 2790 nM, the TGI (MOLT-4 leukemia) was 31.2 µM and the GI50 (COLO 205 colon) was 2460 nM. For the same compound, the TGI (COLO 205 colon) was 18.4 µM, the GI50 (HCT-15 colon) was 29.1 µM and the TGI (HCT-15 colon) was greater than 100 µM. The GI50 (NCI-H460 lung) was 4.83 µM, the TGI (NCI-H460 lung) was greater than 100 µM and the GI50 (SK-MEL-28 melanoma) was 2830 nM. The TGI (SK-MEL-28 melanoma) was 11.8 µM, the GI50 (EKVX NSCLC) was 19.1 µM and the TGI (EKVX NSCLC) was greater than 100 µM. For the same compound, the GI50 (SK-MEL-2 melanoma) was 970 nM, the TGI (SK-MEL-2 melanoma) was 4.51 µM and the GI50 (ACHN renal) was 18.3 µM. For the same compound, the TGI (ACHN renal) was greater than 100 µM, the GI50 (HL-60(TB) leukemia) was 701 nM and the TGI (HL-60(TB) leukemia) was 8.62 µM. For the same compound, the GI50 (MDA-MB-231 breast) was 5.46 µM, the TGI (MDA-MB-231 breast) was 81.3 µM and the GI50 (OVCAR-4 ovarian) was 3.02 µM. For the same compound, the TGI (OVCAR-4 ovarian) was 66 µM, the GI50 (TK-10 renal) was 9.85 µM and the TGI (TK-10 renal) was greater than 100 µM. For the same compound, the GI50 (T-47D breast) was 1820 nM, the TGI (T-47D breast) was greater than 100 µM and the GI50 (UO-31 renal) was 41.3 µM. It also gave a TGI (UO-31 renal) greater than 100 µM, a GI50 (SNB-19 CNS) of 15.7 µM and a TGI (SNB-19 CNS) greater than 100 µM. The GI50 (A498 renal) was 359 nM, the TGI (A498 renal) was 8.57 µM and the GI50 (SF-539 CNS) was 10.8 µM. The TGI (SF-539 CNS) was 37.3 µM, the GI50 (M14 melanoma) was 1950 nM and the TGI (M14 melanoma) was 12.2 µM. The GI50 (HCC-2998 colon) was 5.39 µM, the TGI (HCC-2998 colon) was greater than 100 µM and the GI50 (UACC-257 melanoma) was 2730 nM. It also gave a TGI (UACC-257 melanoma) of 15.7 µM, a GI50 (SK-OV-3 ovarian) of 2650 nM and a TGI (SK-OV-3 ovarian) greater than 100 µM. The GI50 (OVCAR-3 ovarian) was 2350 nM, the TGI (OVCAR-3 ovarian) was 18.5 µM and the GI50 (HCT-116 colon) was 2240 nM. It also gave a TGI (HCT-116 colon) of 30.2 µM, a GI50 (UACC-62 melanoma) of 2560 nM and a TGI (UACC-62 melanoma) of 11 µM. For the same compound, the GI50 (786-0 renal) was 6.08 µM, the TGI (786-0 renal) was greater than 100 µM and the GI50 (NCI-H226 lung) was 7.61 µM. It also gave a TGI (NCI-H226 lung) of 49.1 µM, a GI50 (SNB-75 CNS) of 2750 nM and a TGI (SNB-75 CNS) of 91.6 µM. The GI50 (CCRF-CEM leukemia) was 3.51 µM, the TGI (CCRF-CEM leukemia) was 51.6 µM and the GI50 (HT29 colon) was 6.08 µM. For the same compound, the TGI (HT29 colon) was greater than 100 µM, the GI50 (U251 CNS) was 15.9 µM and the TGI (U251 CNS) was greater than 100 µM. The GI50 (SF-295 CNS) was 31 µM, the TGI (SF-295 CNS) was greater than 100 µM and the GI50 (NCI-H522 lung) was 1290 nM. For the same compound, the TGI (NCI-H522 lung) was 27.3 µM, the GI50 (CAKI-1 renal) was 4.19 µM and the TGI (CAKI-1 renal) was greater than 100 µM. It also gave a GI50 (OVCAR-8 ovarian) of 5.91 µM, a TGI (OVCAR-8 ovarian) greater than 100 µM and a GI50 (MCF7 breast) of 3.45 µM. It also gave a TGI (MCF7 breast) of 27.3 µM, a GI50 (A549 NSCLC) of 47.7 µM and a TGI (A549 NSCLC) greater than 100 µM. For the same compound, the GI50 (RPMI-8226 leukemia) was 1020 nM, the TGI (RPMI-8226 leukemia) was 10.6 µM and the GI50 (NCI-H23 lung) was 2590 nM. It also gave a TGI (NCI-H23 lung) of 12.1 µM, a GI50 (K-562 leukemia) of 597 nM and a TGI (K-562 leukemia) greater than 100 µM.
